In patent EP2818471A1, “Nitrogen bicyclic compounds as inhibitors for Scyl1 and Grk5” (Max-Planck-Gesellschaft zur Förderung der Wissenschaften …, priority 2013, dated 2014):

Target: T1, full length human Scyl1 (1-808) protein (Homo sapiens, UniProt Q96KG9)
T1 construct: The target enzyme used was the full length human Scyl1 (1-808) protein
T1 sequence (Q96KG9 1-808): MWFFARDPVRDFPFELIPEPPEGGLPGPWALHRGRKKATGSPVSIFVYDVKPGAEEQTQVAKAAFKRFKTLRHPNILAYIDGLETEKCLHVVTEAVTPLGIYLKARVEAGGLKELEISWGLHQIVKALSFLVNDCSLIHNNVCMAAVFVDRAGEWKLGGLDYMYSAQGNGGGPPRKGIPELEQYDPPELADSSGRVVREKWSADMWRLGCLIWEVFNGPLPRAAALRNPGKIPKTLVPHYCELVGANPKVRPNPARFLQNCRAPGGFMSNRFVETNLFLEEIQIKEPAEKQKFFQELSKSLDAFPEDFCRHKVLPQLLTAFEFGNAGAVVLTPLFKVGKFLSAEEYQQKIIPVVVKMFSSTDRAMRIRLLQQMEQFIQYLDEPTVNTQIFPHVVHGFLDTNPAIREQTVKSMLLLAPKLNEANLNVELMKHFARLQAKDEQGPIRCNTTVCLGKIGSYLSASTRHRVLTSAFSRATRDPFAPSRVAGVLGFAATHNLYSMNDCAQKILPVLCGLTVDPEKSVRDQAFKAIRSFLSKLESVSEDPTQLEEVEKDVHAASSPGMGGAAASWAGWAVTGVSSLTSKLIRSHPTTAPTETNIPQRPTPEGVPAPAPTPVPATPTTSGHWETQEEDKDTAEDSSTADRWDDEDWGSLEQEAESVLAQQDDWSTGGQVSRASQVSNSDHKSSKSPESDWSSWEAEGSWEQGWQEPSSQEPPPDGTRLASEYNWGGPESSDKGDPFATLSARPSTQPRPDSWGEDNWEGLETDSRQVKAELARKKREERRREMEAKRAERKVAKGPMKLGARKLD
Assay: SCYL1 reporter probe displacement assay
Assay type: binding
Experimental: The reporter displacement assay is based on reporter probe (PRO16, Proteros GmbH) that is designed to bind to ATP-binding site of SCYL1 (Methods in Enzymology, 2011, vol. 493, p. 300-319). The proximity between reporter probe and target protein (SCYL1) results in the emission of an optical signal. Test compounds that bind to the same site as the reporter probe displace the probe, causing signal diminution. The rate of reporter probe displacement is measured over time after addition of test compounds at various concentrations.
For Kd determination, percent reporter probe displacement values are calculated for the last time point, at which the system has reached equilibrium. For each compound concentration percent probe displacement values are calculated and plotted against the compound concentration. IC50-like values (corresponding to 50% probe displacement) are calculated using standard fitting algorithms. […] Thus, according to the Cheng Prusoff equation, the Kd value of test compounds can be calculated with Kd = ½ IC50. […]
Probe displacement was calculated in relation to the C+(positive) and C-(negative) controls. The signal reflecting 0% probe displacement (C+) was measured in the absence of test compound, while the signal representing 100% probe displacement (C-) was measured in the absence of Scyl1. […]

How did the IC50 (Scyl1 probe displacement) turn out when `COc1cc(-c2ccc3ncc(-c4cccnc4)n3n2)cc(OC)c1OC` [compound 10, 3-(3-pyridyl)-6-(3,4,5-trimethoxyphenyl)imidazo[1,2-b]pyridazine] was run?
Its IC50 is 500 nM.

And the Inh. (probe displacement, primary screen)?
Its Inh. is 100%.
